Measured values published in patent US20250292865A1, “DETERMINING BIOLOGICAL PARAMETERS OF A CELL” (THE UNIVERSITY OF BATH, priority 2022, published 2025).

Experiments:
[1] = target: T1, BK ion channel (Homo sapiens, UniProt Q12791); test: Data assimilation of CA1 neuron current clamp recordings: predicted charge through BK channel before and after drug; type: cell-based, rodent
T1 construct: endogenous in cells; host or cells: hippocampal CA1 neuron

[2] = tested on: SK ion channel; test: Data assimilation of CA1 neuron current clamp recordings: predicted charge through SK channel before and after drug; type: cell-based, rodent; settings: 100 nM IbTX, 2000 ms prediction window, FIG. 12A
[3] = tested on: A-type K+ ion channel; test: Data assimilation of CA1 neuron current clamp recordings: predicted charge through A-type K+ channel before and after drug; type: cell-based, rodent
[4] = tested on: NaT ion channel; test: Data assimilation of CA1 neuron current clamp recordings: predicted charge through NaT channel before and after drug; type: cell-based, rodent; settings: 100 nM IbTX, 2000 ms prediction window, FIG. 12A
[5] = tested on: K ion channel; test: Data assimilation of CA1 neuron current clamp recordings: predicted charge through K channel before and after drug; type: cell-based, rodent; settings: 100 nM IbTX, 2000 ms prediction window, FIG. 12A
[6] = target: BK [α subunit only] (Homo sapiens, UniProt Q12791); settings: 100 nM; BK [α subunit only] selectively expressed in HEK293 cells; cited from earlier work
BK [α subunit only], sequence (Q12791 whole entry): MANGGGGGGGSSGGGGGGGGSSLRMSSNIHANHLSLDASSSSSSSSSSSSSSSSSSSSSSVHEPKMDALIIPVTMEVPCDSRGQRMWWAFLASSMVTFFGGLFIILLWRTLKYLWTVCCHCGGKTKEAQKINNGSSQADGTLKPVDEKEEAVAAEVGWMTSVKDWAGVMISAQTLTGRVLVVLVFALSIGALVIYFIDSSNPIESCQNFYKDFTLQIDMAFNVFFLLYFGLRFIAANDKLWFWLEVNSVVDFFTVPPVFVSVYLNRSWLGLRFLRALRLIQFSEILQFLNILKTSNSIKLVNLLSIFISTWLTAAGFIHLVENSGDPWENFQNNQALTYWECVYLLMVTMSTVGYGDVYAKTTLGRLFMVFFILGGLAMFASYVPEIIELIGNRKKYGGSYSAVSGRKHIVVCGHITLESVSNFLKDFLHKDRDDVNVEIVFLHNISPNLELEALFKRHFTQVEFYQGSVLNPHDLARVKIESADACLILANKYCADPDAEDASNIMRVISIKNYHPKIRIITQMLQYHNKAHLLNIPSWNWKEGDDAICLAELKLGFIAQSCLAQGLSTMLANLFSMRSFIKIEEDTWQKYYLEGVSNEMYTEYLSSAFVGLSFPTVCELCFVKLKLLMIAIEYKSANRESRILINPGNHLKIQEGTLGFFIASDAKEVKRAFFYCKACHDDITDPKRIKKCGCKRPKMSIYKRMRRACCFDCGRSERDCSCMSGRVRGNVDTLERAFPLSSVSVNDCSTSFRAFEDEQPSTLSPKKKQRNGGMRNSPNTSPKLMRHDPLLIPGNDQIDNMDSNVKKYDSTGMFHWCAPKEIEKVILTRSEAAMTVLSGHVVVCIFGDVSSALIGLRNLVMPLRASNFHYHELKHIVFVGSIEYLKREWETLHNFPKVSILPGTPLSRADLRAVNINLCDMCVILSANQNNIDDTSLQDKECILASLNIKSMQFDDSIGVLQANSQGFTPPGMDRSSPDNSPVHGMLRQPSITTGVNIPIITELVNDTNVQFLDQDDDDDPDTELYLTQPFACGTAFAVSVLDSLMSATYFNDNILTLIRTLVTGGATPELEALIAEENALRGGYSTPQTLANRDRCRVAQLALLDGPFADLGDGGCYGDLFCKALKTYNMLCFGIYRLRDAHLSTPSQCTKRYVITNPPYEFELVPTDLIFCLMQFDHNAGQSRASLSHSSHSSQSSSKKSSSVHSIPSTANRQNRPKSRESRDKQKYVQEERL

[7] = target: BK [α + β1] (Homo sapiens, UniProt Q12791); settings: 100 nM; BK [α + β1] selectively expressed in HEK293 cells; cited from earlier work
BK [α + β1], sequence (Q12791 whole entry): as above
BK [α + β1], sequence (Q16558 whole entry partner): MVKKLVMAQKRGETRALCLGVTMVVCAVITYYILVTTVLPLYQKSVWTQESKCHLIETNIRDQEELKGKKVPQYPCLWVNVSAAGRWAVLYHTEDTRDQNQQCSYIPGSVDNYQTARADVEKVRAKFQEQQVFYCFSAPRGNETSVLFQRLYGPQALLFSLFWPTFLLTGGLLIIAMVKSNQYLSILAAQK

[8] = target: BK [α + β3] (Homo sapiens, UniProt Q12791); settings: 100 nM; BK [α + β3] selectively expressed in HEK293 cells; cited from earlier work
BK [α + β3], sequence (Q12791 whole entry): as the sequence (Q12791 whole entry) above
BK [α + β3], sequence (Q9NPA1 whole entry partner): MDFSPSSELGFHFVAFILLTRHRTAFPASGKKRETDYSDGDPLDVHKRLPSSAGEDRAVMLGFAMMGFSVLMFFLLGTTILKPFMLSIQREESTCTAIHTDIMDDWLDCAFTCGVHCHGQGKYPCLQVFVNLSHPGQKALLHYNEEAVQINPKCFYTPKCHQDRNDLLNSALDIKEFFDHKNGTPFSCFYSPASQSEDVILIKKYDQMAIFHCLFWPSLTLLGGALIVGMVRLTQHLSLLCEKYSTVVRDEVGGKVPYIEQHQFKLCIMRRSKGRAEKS

[9] = target: BK [α + β4] (Homo sapiens, UniProt Q12791); settings: 100 nM; BK [α + β4] selectively expressed in HEK293 cells; cited from earlier work
BK [α + β4], sequence (Q12791 whole entry): as the sequence (Q12791 whole entry) above
BK [α + β4], sequence (Q86W47 whole entry partner): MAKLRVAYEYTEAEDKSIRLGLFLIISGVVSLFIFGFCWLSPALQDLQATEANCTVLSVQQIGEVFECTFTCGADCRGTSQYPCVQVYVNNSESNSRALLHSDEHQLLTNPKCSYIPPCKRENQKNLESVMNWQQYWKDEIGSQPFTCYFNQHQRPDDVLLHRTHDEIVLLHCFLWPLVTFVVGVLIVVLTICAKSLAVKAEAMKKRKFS

[10] = target: T2, HCN1 (Homo sapiens, UniProt O60741); settings: 50 μM; HCN1 selectively expressed in HEK293 cells; cited from earlier work
T2 sequence (O60741 1-890): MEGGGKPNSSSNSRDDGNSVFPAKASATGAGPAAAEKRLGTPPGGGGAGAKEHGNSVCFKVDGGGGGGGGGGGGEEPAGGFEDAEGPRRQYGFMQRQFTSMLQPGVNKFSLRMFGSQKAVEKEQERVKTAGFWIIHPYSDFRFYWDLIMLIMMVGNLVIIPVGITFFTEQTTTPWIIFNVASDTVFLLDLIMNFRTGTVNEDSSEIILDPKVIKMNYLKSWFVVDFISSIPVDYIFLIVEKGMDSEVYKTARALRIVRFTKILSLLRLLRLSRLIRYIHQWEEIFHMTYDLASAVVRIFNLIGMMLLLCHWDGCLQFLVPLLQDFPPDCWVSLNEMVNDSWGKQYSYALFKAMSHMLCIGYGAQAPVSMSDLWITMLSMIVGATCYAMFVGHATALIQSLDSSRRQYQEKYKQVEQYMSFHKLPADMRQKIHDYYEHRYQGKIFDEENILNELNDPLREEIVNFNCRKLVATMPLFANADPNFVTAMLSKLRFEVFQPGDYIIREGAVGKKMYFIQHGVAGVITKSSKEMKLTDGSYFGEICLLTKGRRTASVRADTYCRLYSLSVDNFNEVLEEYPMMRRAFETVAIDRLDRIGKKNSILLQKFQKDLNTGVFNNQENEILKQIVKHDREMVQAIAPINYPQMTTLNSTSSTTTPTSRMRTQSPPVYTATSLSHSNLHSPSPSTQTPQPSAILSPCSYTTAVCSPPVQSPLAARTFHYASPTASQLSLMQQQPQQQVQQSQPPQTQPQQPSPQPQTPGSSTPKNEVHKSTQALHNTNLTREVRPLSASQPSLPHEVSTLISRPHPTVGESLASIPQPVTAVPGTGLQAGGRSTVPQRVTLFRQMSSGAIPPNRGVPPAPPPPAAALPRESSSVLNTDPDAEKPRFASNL

[11] = target: T3, HCN2 (Homo sapiens, UniProt Q9UL51); settings: 50 μM; HCN2 selectively expressed in xenopus oocytes; cited from earlier work
T3 sequence (Q9UL51 1-889): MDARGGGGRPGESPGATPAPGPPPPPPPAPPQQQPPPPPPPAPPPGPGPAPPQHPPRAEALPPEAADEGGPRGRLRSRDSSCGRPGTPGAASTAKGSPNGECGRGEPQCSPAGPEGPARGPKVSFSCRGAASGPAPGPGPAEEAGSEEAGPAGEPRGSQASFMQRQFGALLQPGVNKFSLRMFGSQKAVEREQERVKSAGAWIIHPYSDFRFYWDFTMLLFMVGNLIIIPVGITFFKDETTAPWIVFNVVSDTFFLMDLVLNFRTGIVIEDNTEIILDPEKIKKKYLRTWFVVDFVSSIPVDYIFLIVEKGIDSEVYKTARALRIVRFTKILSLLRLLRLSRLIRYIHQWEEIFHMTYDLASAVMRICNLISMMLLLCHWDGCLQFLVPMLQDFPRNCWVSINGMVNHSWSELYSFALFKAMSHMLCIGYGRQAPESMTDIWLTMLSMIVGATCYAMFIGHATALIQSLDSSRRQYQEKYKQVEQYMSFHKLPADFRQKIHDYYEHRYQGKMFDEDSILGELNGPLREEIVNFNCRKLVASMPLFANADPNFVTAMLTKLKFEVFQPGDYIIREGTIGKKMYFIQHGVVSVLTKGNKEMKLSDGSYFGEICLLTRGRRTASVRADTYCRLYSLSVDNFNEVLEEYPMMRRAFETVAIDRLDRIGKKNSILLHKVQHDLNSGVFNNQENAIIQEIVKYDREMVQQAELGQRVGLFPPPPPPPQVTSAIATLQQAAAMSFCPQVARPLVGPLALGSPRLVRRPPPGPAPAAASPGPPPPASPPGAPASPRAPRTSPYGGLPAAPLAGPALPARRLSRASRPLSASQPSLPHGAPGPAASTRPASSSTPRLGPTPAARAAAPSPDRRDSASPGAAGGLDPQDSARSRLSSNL

[12] = target: A-type [Kv1.4] (Homo sapiens, UniProt P22459); settings: 300 μM; A-type [Kv1.4] selectively expressed in xenopus oocytes; cited from earlier work
A-type [Kv1.4], sequence (P22459 whole entry): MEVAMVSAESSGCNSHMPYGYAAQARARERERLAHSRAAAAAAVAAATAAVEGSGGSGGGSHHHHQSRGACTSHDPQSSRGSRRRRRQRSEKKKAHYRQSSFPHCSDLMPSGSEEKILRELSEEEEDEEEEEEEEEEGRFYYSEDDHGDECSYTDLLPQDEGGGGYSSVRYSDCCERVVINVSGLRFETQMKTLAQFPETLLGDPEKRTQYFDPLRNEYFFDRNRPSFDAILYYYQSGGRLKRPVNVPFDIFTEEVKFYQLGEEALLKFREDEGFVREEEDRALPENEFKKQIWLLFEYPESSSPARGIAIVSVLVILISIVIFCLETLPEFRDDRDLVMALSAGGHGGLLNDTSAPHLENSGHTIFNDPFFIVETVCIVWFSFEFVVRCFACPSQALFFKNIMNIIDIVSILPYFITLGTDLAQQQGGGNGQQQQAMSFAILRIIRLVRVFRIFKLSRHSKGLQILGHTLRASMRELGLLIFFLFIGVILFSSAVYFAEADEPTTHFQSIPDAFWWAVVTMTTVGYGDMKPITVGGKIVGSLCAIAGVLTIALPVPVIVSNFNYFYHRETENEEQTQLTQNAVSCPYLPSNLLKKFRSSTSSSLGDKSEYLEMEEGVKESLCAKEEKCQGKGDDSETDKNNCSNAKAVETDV

[13] = target: T4, A-type [Kv4.2] (Homo sapiens, UniProt Q9NZV8); settings: 300 μM; A-type [Kv4.2] selectively expressed in xenopus oocytes; cited from earlier work
T4 sequence (Q9NZV8 1-630): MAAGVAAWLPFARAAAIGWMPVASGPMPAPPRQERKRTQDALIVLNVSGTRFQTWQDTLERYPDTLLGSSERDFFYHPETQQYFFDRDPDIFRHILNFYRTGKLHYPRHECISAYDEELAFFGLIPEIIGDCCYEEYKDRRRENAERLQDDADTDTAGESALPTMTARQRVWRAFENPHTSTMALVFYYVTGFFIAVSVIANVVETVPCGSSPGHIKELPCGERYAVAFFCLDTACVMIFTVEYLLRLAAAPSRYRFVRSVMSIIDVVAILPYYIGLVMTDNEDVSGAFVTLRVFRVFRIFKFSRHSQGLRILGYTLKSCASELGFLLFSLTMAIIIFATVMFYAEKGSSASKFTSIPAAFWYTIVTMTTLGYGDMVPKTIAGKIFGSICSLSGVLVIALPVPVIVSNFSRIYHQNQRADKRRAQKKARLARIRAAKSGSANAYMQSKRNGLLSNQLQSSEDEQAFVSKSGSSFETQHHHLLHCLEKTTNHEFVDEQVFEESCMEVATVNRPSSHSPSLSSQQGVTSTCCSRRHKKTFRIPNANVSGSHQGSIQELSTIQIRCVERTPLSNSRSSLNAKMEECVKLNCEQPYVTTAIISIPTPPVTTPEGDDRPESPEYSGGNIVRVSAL

T1 sequence (Q12791 whole entry): as the sequence (Q12791 whole entry) above

## Iberiotoxin (QFTDVDCSVSKECWSVCKDLFGVDRGKCMGKKCRCYQ; UniProt P24663 1-37, looked up)
[1]; 100 nM IbTX, BK ion channel, 2000 ms prediction window, FIG. 12A, 12D
  Effect on total predicted charge (spike normalised), pre- vs post-drug: does have a noticeable effect
[1]; 100 nM applied, BK current, CA1 neuron, mean
  MEAN PREDICTED INHIBITION (Results): 14.8%
[1]; 100 nM applied, BK current, CA1 neuron, median
  MEDIAN PREDICTED INHIBITION (Results): 12.1%
[2]
  Effect on total predicted charge (spike normalised), pre- vs post-drug: does not have a visible effect
[3]; 100 nM IbTX, A-type K+ ion channel, 2000 ms prediction window, FIG. 12A
  Effect on total predicted charge (spike normalised), pre- vs post-drug: does not have a visible effect
[4]
  Effect on total predicted charge (spike normalised), pre- vs post-drug: does not have a visible effect
[5]
  Effect on total predicted charge (spike normalised), pre- vs post-drug: does not have a visible effect
[6]
  EXPECTED DEGREE OF BLOCK AT APPLIED CONCENTRATION: 86%
[7]
  EXPECTED DEGREE OF BLOCK AT APPLIED CONCENTRATION: 12%
[8]
  EXPECTED DEGREE OF BLOCK AT APPLIED CONCENTRATION: 77%
[9]
  EXPECTED DEGREE OF BLOCK AT APPLIED CONCENTRATION: Insensitive

## CCN(c1ccccc1)c1cc(=NC)n(C)c(C)n1.Cl [ZD 7288]
[10]
  EXPECTED DEGREE OF BLOCK AT APPLIED CONCENTRATION: ~63%
[11]
  EXPECTED DEGREE OF BLOCK AT APPLIED CONCENTRATION: ~80%

## Nc1ccncc1 [4-AP, 4-aminopyridine]
[3]; 300 μM applied, A-type K+ current, CA1 neuron, mean
  MEAN PREDICTED INHIBITION (Results): 19.0%
[3]; 300 μM applied, A-type K+ current, CA1 neuron, median
  MEDIAN PREDICTED INHIBITION (Results): 24.3%
[12]
  EXPECTED DEGREE OF BLOCK AT APPLIED CONCENTRATION: ~25%
[13]
  EXPECTED DEGREE OF BLOCK AT APPLIED CONCENTRATION: ~13%
